Laboratory results from patent publication US6555566B2, “Methods and materials for treating and preventing inflammation of mucosal tissue” (Mayo Foundation for Medical Education and Research, priority 1997, dated 2003).
Several values for one entry are separate records, joined by “and”; a condition that tells them apart may be missing. Identical values can stand only once.

Columns and labels:
[1] = system: non-invasive fungus-induced rhinosinusitis patients; assay: Itraconazole nasal irrigations in rhinosinusitis patients; assay type: in vivo, human; set-up: symptom score before itraconazole irrigations / symptom score after itraconazole irrigations / endoscopic score, right side, before / endoscopic score, right side, after / endoscopic score, left side, before / endoscopic score, left side, after: scale not given here
Description: Three non-invasive fungus-induced rhinosinusitis patients (person, person, and person) were instructed to perform nasal irrigation with an itraconazole solution. The itraconazole solution contained about 100 mg of itraconazole per L of solution (10% PEG-400 in sterile water) and was prepared as described herein. […] Each patient reported marked improvement in symptoms within two weeks of starting the itraconazole irrigations (symptom scores: −1 to +2 and −1 to +1).
After treatment with itraconazole, that patient reported symptom improvement (symptom score: from −1 to 0).

[2] = system: non-invasive fungus-induced rhinosinusitis patients; assay: Amphotericin B nasal irrigation study, three month follow-up of 53 patients; assay type: in vivo, human
Text: In addition to patient interviewing, CT scan analysis, visual examination, and fungal culture analysis, two types of evaluations were used to score the success of the treatment: an endoscopic evaluation and a patient symptom evaluation.

chronic asthma patients = assay: Chronic asthma symptoms in patients of the amphotericin B irrigation study
Description: One hundred and thirty-two consecutive rhinosinusitis patients were entered into a study to evaluate the use of an antifungal agent to treat non-invasive fungus-induced rhinosinusitis. […] The 125 non-invasive fungus-induced rhinosinusitis patients were started on an antifungal treatment of about 20 mL of an amphotericin B solution per nostril, two to four times daily for at least three months. The concentration of the amphotericin B solution was about 100 mg per liter of saline or water. A 20 mL bulb was used by the patient to mucoadminister the amphotericin B solution into the patient's nasal-paranasal anatomy. Data were compiled for 53 of the patients who had returned for their three month follow-up analysis.

rhinosinusitis patient = assay: Single patient, one-sided then two-sided amphotericin B irrigation with surgery, RAST to Alternaria
Description: Only the left nasal-paranasal side, however, received surgery as well as intra-operative and post-operative treatment with about 20 mL of an amphotericin B solution (100 mg/L) two to four times daily.

[3] = system: non-invasive fungus-induced rhinosinusitis patients; assay: Patient data collected during a one week period (amphotericin B nasal irrigations); assay type: in vivo, human; set-up: Endoscopy Score B / Endoscopy Score A / Symptom Score B: scale not given here
Text: Only previously seen patients that were instructed to use the antifungal amphotericin B nasal irrigations were entered into this study.
During a one week period, twenty patients returned to the physician's office (Table II). The average age of the returning patients was 47 years (range 16-74 years). The patients were using the amphotericin B irrigations for an average duration of about six months (range 1-16 months). […] In addition, some patients were using topical and systemic steroid therapy. Further, some patients were using an antibiotic nasal irrigation in addition to the antifungal irrigations. The antibacterial solution contained 80 mg gentamicin per L saline (Wilson's solution). Some patients mixed the antibacterial solution with the antifungal solution and then performed the nasal irrigations while others used each solution separately in a sequential manner. Some patients also had other diseases including asthma (15 of the 20 patients) and colitis (2 of the 20 patients).

[4] = system: non-invasive fungus-induced rhinosinusitis patients; assay: Amphotericin B irrigations in patients without previous nasal surgery; assay type: in vivo, human
Text: A person was diagnosed with non-invasive fungus-induced rhinosinusitis and instructed to perform amphotericin B irrigations twice a day.
A person was diagnosed with non-invasive fungus-induced rhinosinusitis and instructed to perform amphotericin B irrigations twice a day, which was later increased to four times a day.
A person was diagnosed with non-invasive fungus-induced rhinosinusitis and instructed to perform amphotericin B irrigations twice a day. This patient had been given intramuscular steroid shots every 3 to 8 months with the last shot being administered about seven months prior to starting the amphotericin B irrigations.

[5] = system: non-invasive fungus-induced rhinosinusitis patient; assay: Eosinophil count in mucosal biopsies after antifungal treatment; assay type: in vivo, human; settings: after nine months of irrigations twice a day
Text: A person was diagnosed with non-invasive fungus-induced rhinosinusitis and instructed to perform amphotericin B irrigations twice a day. After nine months of amphotericin B irrigations, the patient underwent sinus surgery for further improvement. During the surgery mucosal biopsies were collected and the eosinophil count compared to the those obtained from biopsies collected from the patient during a surgery prior to the antifungal treatment.

[6] = sixteen days after starting itraconazole irrigations, one patient
[7] = after treatment, three month follow-up
[8] = after antifungal treatment, nasal irrigations 1-16 months, 1-2x day, one line per patient, r26 and r28 switched to itraconazole for the last month, r13 stopped 8 months earlier
[9] = before antifungal treatment (baseline), one line per patient

CCC(C)n1ncn(-c2ccc(N3CCN(c4ccc(OCC5COC(Cn6cncn6)(c6ccc(Cl)cc6Cl)O5)cc4)CC3)cc2)c1=O (centres unmarked) [itraconazole]
symptom score after itraconazole irrigations ([1]; about 100 mg per L (10% PEG-400 in sterile water), within two weeks, patients not responding to amphotericin B, one line per patient): +2 and +1 and 0
symptom score before itraconazole irrigations ([1]; baseline, one line per patient): −1
endoscopic score, left side, before ([1]; baseline, one patient): 1
endoscopic score, right side, before ([1]; baseline, one patient): 1
local reaction to nasal irrigations ([1]; human, in vivo): did not have any adverse local reaction
endoscopic score, left side, after [1, 6]: 1
endoscopic score, right side, after [1, 6]: 0

C[C@@H]1[C@H](O)[C@@H](C)/C=C/C=C/C=C/C=C/C=C/C=C/C=C/[C@H](O[C@@H]2O[C@H](C)[C@@H](O)[C@H](N)[C@@H]2O)C[C@@H]2O[C@](O)(C[C@@H](O)C[C@@H](O)[C@H](O)CC[C@@H](O)C[C@@H](O)CC(=O)O[C@H]1C)C[C@H](O)[C@H]2C(=O)O [amphotericin B]
patients going from endoscopic evaluation stage 2 or 3 to stage 0 ([2]; after three months, about 20 mL of 100 mg/L solution per nostril, two to four times daily): 33 of the 53
patients giving themselves symptom stage 0 (baseline/no change) [2, 7]: six of the 53
patients giving themselves symptom stage 1 (good/improved) [2, 7]: three of the 53
patients giving themselves symptom stage 2 (very good/free of symptoms) [2, 7]: 44 of the 53
patients that did not respond to the treatment (of 53) ([2]; endoscopic evaluation after three months): nine
non-responding patients whose mucus fungal organisms were resistant to the agent ([2]; five of the nine non-responders had mucus samples available): all five
CT scan finding after treatment ([2]; one patient with bilateral rhinosinusitis, no recent surgery, no steroids, 20 mL of 100 mg/L per nostril two times daily, four months): complete disappearance of opacity and symptoms characteristic of rhinosinusitis
number of different fungal species in mucus after versus before treatment ([2]; several patients, fungal organism culturing): remarkably reduced
patients no longer exhibiting asthma symptoms who stopped taking their asthma medication (chronic asthma patients; after starting treatment): 26 of the 28
asthmatic patients declaring improvement or complete elimination of asthma symptoms (chronic asthma patients; after three months of nasal irrigation treatment of Example 2): 28 of the 37
patients with improved pulmonary function test after versus before treatment (chronic asthma patients; four of the 28 improved patients tested): all four
patients taking steroids after starting treatment (chronic asthma patients; of twenty-three patients on systemic steroids for asthma before): none
RAST reading to Alternaria (rhinosinusitis patient; after surgery on the right side and irrigation of both sides for about seven weeks): 4.47 KU/L
state of the treated left paranasal sinuses (rhinosinusitis patient; at every post-operative visit, surgery plus irrigation of the left side): clear of disease
RAST reading to Alternaria (rhinosinusitis patient; before treatment (baseline)): 6.23 KU/L
RAST reading to Alternaria (rhinosinusitis patient; only left side operated and irrigated (about 20 mL, 100 mg/L, two to four times daily), eight to ten weeks after symptoms disappeared on the left): 7.16 KU/L
patient state by CT scan (rhinosinusitis patient; six months after the last surgery, both sides irrigated): symptom-free and disease-free
RAST reading to Alternaria (rhinosinusitis patient; six months post-operation, only left side treated, rhinosinusitis diagnosed on the right): 10.0 KU/L
Endoscopy Score A [3, 8]: 0 (10×) and 3 (5×) and 1 (2×)
Symptom Score A [3, 8]: +1 (6×) and +2 (6×) and 0 (6×) and −2 and 1
Endoscopy Score B [3, 9]: 1 (3×) and 2 (5×) and 3 (10×) and 0
Symptom Score B [3, 9]: −1 (14×) and −2 (6×)
endoscopic evaluation, overall outcome of the twenty patients ([3]; nasal irrigations, average about six months): most patients had an observable improvement
symptom score before treatment ([4]; baseline, no previous nasal surgery, one line per patient): −1
endoscopic score after treatment ([4]; irrigations twice a day (b227 later four times a day) for fourteen, sixteen, four months): 0
eosinophil count in mucosal biopsies, all sinuses except the frontal [5]: < 5%
eosinophil count in the frontal sinus biopsy ([5]; frontal sinus obstructed, presumably not reached): 10%
local reaction to nasal irrigations ([1]; one patient (third patient)): burning sensation
